{"source": "patent US9371345B2", "about": "“Metathesis catalysts containing onium groups” (Apeiron Synthesis S.A., priority 2012, dated 2016)"}
{"assay": "Solubility of the complex in water and alcohols", "assay_type": "physicochemical", "conditions": "methanol, ethanol, water/alcohol mixture"}
{"smiles": "CC(C)c1cccc(C(C)C)c1N1CCN(c2c(C(C)C)cccc2C(C)C)[CH]1[Ru]([Cl])([Cl])=[CH]c1ccccc1OC1CC[N+](C)(C)CC1", "note": "[Complex 48]", "Solubility in methanol, ethanol and water/alcohol mixture, in words": "excellent solubility"}
{"assay": "Solubility of the complex in water and alcohols", "assay_type": "physicochemical", "conditions": "neat / pure water"}
{"smiles": "CC(C)c1cccc(C(C)C)c1N1CCN(c2c(C(C)C)cccc2C(C)C)[CH]1[Ru]([Cl])([Cl])=[CH]c1ccccc1OC1CC[N+](C)(C)CC1", "note": "[Complex 48]", "Solubility in water, in words": "Insoluble"}
{"assay": "Solubility of the complex in water and alcohols", "assay_type": "physicochemical", "conditions": "water", "units": {"Water solubility": "µg/mL"}}
{"smiles": "CC[N+]1(C)CCN(CC2CN(c3c(C)cc(C)cc3C)[CH]([Ru]([Cl])([Cl])=[CH]c3ccccc3OC3CC[N+](C)(C)CC3)N2c2c(C)cc(C)cc2C)CC1", "note": "(stereo not drawn) [Complex 53]", "Water solubility": 35000}
{"smiles": "Cc1cc(C)c(N2CC(C[N+](C)(C)C)N(c3c(C)cc(C)cc3C)[CH]2[Ru]([Cl])([Cl])=[CH]c2ccccc2OC2CC[N+](C)(C)CC2)c(C)c1", "note": "(stereo not drawn) [Complex 51]", "Water solubility": 35000}
{"smiles": "CC(C)Oc1ccccc1[CH]=[Ru]([Cl])([Cl])[CH]1N(c2c(C(C)C)cc(C[N+]3(C)CCOCC3)cc2C(C)C)CCN1c1c(C(C)C)cc(C[N+]2(C)CCOCC2)cc1C(C)C", "note": "[Complex 54]", "Water solubility": 2000}
{"smiles": "CC[N+]1(C)CCN(CC2CN(c3c(C)cc(C)cc3C)[CH]([Ru]([Cl])([Cl])=[CH]c3ccccc3OC(C)C)N2c2c(C)cc(C)cc2C)CC1", "note": "(stereo not drawn) [Complex 52]", "Water solubility": 3000}
{"smiles": "Cc1cc(C)c(N2CCN(c3c(C)cc(C)cc3C)[CH]2[Ru]([Cl])([Cl])=[CH]c2cc([N+](C)(C)C)ccc2OC(C)C)c(C)c1", "note": "[Complex 56]", "Water solubility": 1000}
{"smiles": "CC(C)c1cc(C[N+]2(C)CCOCC2)cc(C(C)C)c1N1CCN(c2c(C(C)C)cc(C[N+]3(C)CCOCC3)cc2C(C)C)[CH]1[Ru]([Cl])([Cl])=[CH]c1ccccc1OC1CC[N+](C)(C)CC1", "note": "[Complex 55]", "Water solubility": 65000}
{"smiles": "Cc1cc(C)c(N2CC(C[N+](C)(C)C)N(c3c(C)cc(C)cc3C)[CH]2[Ru]([Cl])([Cl])=[CH]c2cc([N+](=O)[O-])ccc2OC(C)C)c(C)c1", "note": "(stereo not drawn) [Complex 50]", "Water solubility": 3000}
